# Experimental data reported in patent publication US20240252488A1 (KOREA RESEARCH INSTITUTE OF CHEMICAL TECHNOLOGY, priority 2020, published 2024).
# Experiments:
# FADD−/− Jurkat cells = test: Necroptosis inhibition assay, TNF-α-induced necroptosis (CellTiter-Glo 2.0); format: cell-based, human; details: TNF-α 15 ng/mL; for Necroptosis inhibition assay (Rescue %) 1 μM: compound 1 μM; for Necroptosis inhibition assay (Rescue %) 10 μM: compound 10 μM
# Procedure, shortened: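 Compound is added to cells at final concentrations of 0.1, 1 and 10 μM and left 30 minutes at room temperature. Necroptosis is induced with 15 ng/mL TNF-α, culture continues 20 to 24 hours at 37° C, and ATP-based luminescence reports viability.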
# MLKL [1] = target: T1, MLKL (Homo sapiens, UniProt Q8NB16); test: MLKL degradation assay in HepG2 cell line (western blot); format: cell-based; design: endogenous in cells; host or cells: HepG2 or HaCaT; details: cell line not given; for Degradation assay (Degradation %) 1 μM: compound 1 μM; for Degradation assay (Degradation %) 10 μM: compound 10 μM
# T1 sequence (Q8NB16 1-471): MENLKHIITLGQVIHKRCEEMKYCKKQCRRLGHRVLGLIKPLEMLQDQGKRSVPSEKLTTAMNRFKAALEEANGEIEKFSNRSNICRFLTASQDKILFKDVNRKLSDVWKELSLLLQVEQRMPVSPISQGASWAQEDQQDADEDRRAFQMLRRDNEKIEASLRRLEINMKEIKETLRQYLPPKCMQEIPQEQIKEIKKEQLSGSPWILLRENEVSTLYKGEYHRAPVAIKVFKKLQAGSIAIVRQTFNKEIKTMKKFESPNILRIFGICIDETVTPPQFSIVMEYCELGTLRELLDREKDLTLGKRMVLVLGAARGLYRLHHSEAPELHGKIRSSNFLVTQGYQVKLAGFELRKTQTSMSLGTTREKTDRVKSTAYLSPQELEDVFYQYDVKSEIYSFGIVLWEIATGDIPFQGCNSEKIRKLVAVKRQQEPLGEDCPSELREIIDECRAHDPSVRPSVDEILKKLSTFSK
# Procedure, shortened: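 Chemiluminescent western blot signal reports remaining MLKL protein in HepG2 cells after 20-24 h treatment with compound at a final 1 or 10 μM. Equal protein (10-15 μg, BCA) is loaded per lane.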
# MLKL [2] = target: T1, MLKL; test: Measurement of binding affinity with MLKL receptor (competitive binding assay, Kd); design: made in house; host or cells: HEK 293 cell line (T7 phage in E. coli BL21-derived host is also described)
# Procedure, shortened: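 qPCR of MLKL eluted from liganded beads served as the read-out, from which Kd was derived. The protein was made in HEK 293 cells with a DNA tag, and test compounds competed with the bead-bound ligand at 0.9% final DMSO.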
Degradation assay (Degradation %) 1 μM (MLKL [1]),Degradation assay (Degradation %) 10 μM (MLKL [1]),Kd (MLKL [2]),SMILES,Necroptosis inhibition assay (Rescue %) 1 μM (FADD−/− Jurkat cells),Necroptosis inhibition assay (Rescue %) 10 μM (FADD−/− Jurkat cells),Necroptosis inhibition assay (Rescue %) 1 μM (FADD−/− Jurkat cells; FADD−/− Jurkat cells),Necroptosis inhibition assay (Rescue %) 10 μM (FADD−/− Jurkat cells; FADD−/− Jurkat cells)
48.93%,43.56%,7.3 nM,"Nc1ncc(-c2cnn(C3CCN(CCOCCOCCOCCNC(=O)CNc4ccc5nnn(C6CCC(=O)NC6=O)c(=O)c5c4)CC3)c2)nc1C(=O)O[C@@H](C(=O)Nc1ccc(F)cc1)c1ccccc1 (stereo partly drawn) [TDH-175, (R)-2-((4-fluorophenyl)amino)-2-oxo-1-phenylethyl 3-amino-6-(1-(1-(1-((3-(2,6-dioxopiperidin-3-yl)-4-oxo-3,4-dihydrobenzo[d][1,2,3]triazin-6-yl)amino)-2-oxo-6,9,12-trioxa-3-azatetradecan-14-yl)piperidin-4-yl)-1H-pyrazol-4-yl)pyrazine-2-carboxylate]",18.82%,35.89%,,
7.56%,26.63%,96 nM,"Nc1ncc(-c2ccc(N3CCN(CCOCCOCCNC(=O)C4CCN(c5cccc6c5C(=O)N(C5CCC(=O)NC5=O)C6=O)CC4)CC3)nc2)nc1C(=O)OC(C(=O)Nc1ccc(F)cc1)c1ccccc1 (stereo not shown) [TDH-257, 2-((4-fluorophenyl)amino)-2-oxo-1-phenylethyl 3-amino-6-(6-(4-(2-(2-(2-(1-(2-(2,6-dioxopiperidin-3-yl)-1,3-dioxoisoindolin-4-yl)piperidine-4-carboxamido)ethoxy)ethoxy)ethyl)piperazin-1-yl)pyridin-3-yl)pyrazine-2-carboxylate]",24.61%,21.71%,,
51.96%,35.05%,2.7 nM,"Nc1ncc(-c2cnn(C3CCN(CC4CCN(C(=O)CNc5ccc6nnn(C7CCC(=O)NC7=O)c(=O)c6c5)CC4)CC3)c2)nc1C(=O)O[C@@H](C(=O)Nc1ccc(F)cc1)c1ccccc1 (stereo partly drawn) [TDH-152, (R)-2-((4-fluorophenyl)amino)-2-oxo-1-phenylethyl 3-amino-6-(1-(1-((1-((3-(2,6-dioxopiperidin-3-yl)-4-oxo-3,4-dihydrobenzo[d][1,2,3]triazin-6-yl)glycyl)piperidin-4-yl)methyl)piperidin-4-yl)-1H-pyrazol-4-yl)pyrazine-2-carboxylate]",63.2%,41.21%,,
31.43%,43.78%,11 nM,"Nc1ncc(-c2cnn(C3CCN(C(=O)CC4CCN(c5cccc6c5C(=O)N(C5CCC(=O)NC5=O)C6=O)CC4)CC3)c2)nc1C(=O)O[C@@H](C(=O)Nc1ccc(F)cc1)c1ccccc1 (stereo partly drawn) [TDH-343, (R)-2-((4-fluorophenyl)amino)-2-oxo-1-phenylethyl 3-amino-6-(1-(1-(2-(1-(2-(2,6-dioxopiperidin-3-yl)-1,3-dioxoisoindolin-4-yl)piperidin-4-yl)acetyl)piperidin-4-yl)-1H-pyrazol-4-yl)pyrazine-2-carboxylate]",12.75%,14.42%,,
96.64%,85.06%,8.6 nM,"Nc1ncc(-c2cnn(C3CCN(CCC4CCN(C(=O)CNc5ccc6c(c5)C(=O)N(C5CCC(=O)NC5=O)C6=O)CC4)CC3)c2)cc1C(=O)OC(C(=O)Nc1ccc(F)cc1)c1ccccc1 (stereo not shown) [TDH-302, 2-((4-fluorophenyl)amino)-2-oxo-1-phenylethyl 2-amino-5-(1-(1-(2-(1-((2-(2,6-dioxopiperidin-3-yl)-1,3-dioxoisoindolin-5-yl)glycyl)piperidin-4-yl)ethyl)piperidin-4-yl)-1H-pyrazol-4-yl)nicotinate]",54.15%,51.56%,,
84.28%,80.64%,0.82 nM,"Nc1ncc(-c2cnn(C3CCN(CCC4CCN(C(=O)CC5CCN(c6ccc7c(c6)C(=O)N(C6CCC(=O)NC6=O)C7=O)CC5)CC4)CC3)c2)nc1C(=O)O[C@@H](C(=O)Nc1ccc(F)cc1)c1ccccc1 (stereo partly drawn) [TDH-367, (R)-2-((4-fluorophenyl)amino)-2-oxo-1-phenylethyl 3-amino-6-(1-(1-(2-(1-(2-(1-(2-(2,6-dioxopiperidin-3-yl)-1,3-dioxoisoindolin-5-yl)piperidin-4-yl)acetyl)piperidin-4-yl)ethyl)piperidin-4-yl)-1H-pyrazol-4-yl)pyrazine-2-carboxylate]",36.86%,21.34%,,
55.2%,46.68%,20 nM,"Nc1ncc(-c2cnn(C3CCN(CCCCCCCCCCNC(=O)COc4ccc5c(c4)C(=O)N(C4CCC(=O)NC4=O)C5=O)CC3)c2)nc1C(=O)O[C@@H](C(=O)Nc1ccc(F)cc1)c1ccccc1 (stereo partly drawn) [TDH-164, (R)-2-((4-fluorophenyl)amino)-2-oxo-1-phenylethyl 3-amino-6-(1-(1-(10-(2-((2-(2,6-dioxopiperidin-3-yl)-1,3-dioxoisoindolin-5-yl)oxy)acetamido)decyl)piperidin-4-yl)-1H-pyrazol-4-yl)pyrazine-2-carboxylate]",27.84%,10.5%,,
72.66%,72.89%,2.5 nM,"Nc1ncc(-c2cnn(C3CCN(C(=O)CC4CCN(C(=O)C5CCN(c6cccc7nnn(C8CCC(=O)NC8=O)c(=O)c67)CC5)CC4)CC3)c2)nc1C(=O)O[C@@H](C(=O)Nc1ccc(F)cc1)c1ccccc1 (stereo partly drawn) [TDH-412, (R)-2-((4-fluorophenyl)amino)-2-oxo-1-phenylethyl 3-amino-6-(1-(1-(2-(1-(1-(3-(2,6-dioxopiperidin-3-yl)-4-oxo-3,4-dihydrobenzo[d][1,2,3]triazin-5-yl)piperidine-4-carbonyl)piperidin-4-yl)acetyl)piperidin-4-yl)-1H-pyrazol-4-yl)pyrazine-2-carboxylate]",,,24.36%,29.48%
35.97%,27.19%,2.6 nM,"Nc1ncc(-c2cnn(C3CCN(CC4CN(c5cccc6c5C(=O)N(C5CCC(=O)NC5=O)C6=O)CCO4)CC3)c2)nc1C(=O)OC(C(=O)Nc1ccc(F)cc1)c1ccccc1 (stereo not shown) [TDH-310, 2-((4-fluorophenyl)amino)-2-oxo-1-phenylethyl 3-amino-6-(1-(1-((4-(2-(2,6-dioxopiperidin-3-yl)-1,3-dioxoisoindolin-4-yl)morpholin-2-yl)methyl)piperidin-4-yl)-1H-pyrazol-4-yl)pyrazine-2-carboxylate]",40.08%,41.99%,,
88.25%,83.83%,8.9 nM,"Nc1ncc(-c2cnn(C3CCN(C(=O)COC4CCN(C(=O)C5CCN(c6ccc7c(c6)C(=O)N(C6CCC(=O)NC6=O)C7=O)CC5)CC4)CC3)c2)nc1C(=O)O[C@@H](C(=O)Nc1ccc(F)cc1)c1ccccc1 (stereo partly drawn) [TDH-398, (R)-2-((4-fluorophenyl)amino)-2-oxo-1-phenylethyl 3-amino-6-(1-(1-(2-((1-(1-(2-(2,6-dioxopiperidin-3-yl)-1,3-dioxoisoindolin-5-yl)piperidine-4-carbonyl)piperidin-4-yl)oxy)acetyl)piperidin-4-yl)-1H-pyrazol-4-yl)pyrazine-2-carboxylate]",36.81%,30.39%,,
51.1%,48.59%,1.7 nM,"Nc1ncc(-c2cnn(C3CCN(C(=O)c4cn(C5CCN(C(=O)CNc6ccc7c(c6)C(=O)N(C6CCC(=O)NC6=O)C7=O)CC5)cn4)CC3)c2)nc1C(=O)O[C@@H](C(=O)Nc1ccc(F)cc1)c1ccccc1 (stereo partly drawn) [TDH-361, (R)-2-((4-fluorophenyl)amino)-2-oxo-1-phenylethyl 3-amino-6-(1-(1-(1-(1-((2-(2,6-dioxopiperidin-3-yl)-1,3-dioxoisoindolin-5-yl)glycyl)piperidin-4-yl)-1H-imidazole-4-carbonyl)piperidin-4-yl)-1H-pyrazol-4-yl)pyrazine-2-carboxylate]",19.10%,10.01%,,
